Results taken from EP4471048A1, “PEPTIDE INHIBITORS OF INTERLEUKIN-23 RECEPTOR” (Zealand Pharma A/S, priority 2023, dated 2024).
Read-outs that look alike come from different tables or passages of the source.

How the values were obtained:
[1] = Peptide stability in simulated gastric fluid (SGF); type: in vitro ADME; settings: pig, simulated gastric fluid (SGF) with porcine pepsin (3.2 g/L), 37 °C, porcine pepsin; for remaining at 4 h, 10 µM: pH 1.2, 4 h
In short: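 Peptide incubated at 37 °C with gentle shaking in SGF (NaCl, pH 1.2). Samples centrifuged, diluted and analysed by LC-HRMS; percent remaining at each timepoint from absolute peak areas relative to time zero, with 4 h as the reference point.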

human IL-23R = biological target: T1, human IL-23R (Homo sapiens, UniProt Q5VWK5); test: biochemical
T1 sequence (Q5VWK5 22-629): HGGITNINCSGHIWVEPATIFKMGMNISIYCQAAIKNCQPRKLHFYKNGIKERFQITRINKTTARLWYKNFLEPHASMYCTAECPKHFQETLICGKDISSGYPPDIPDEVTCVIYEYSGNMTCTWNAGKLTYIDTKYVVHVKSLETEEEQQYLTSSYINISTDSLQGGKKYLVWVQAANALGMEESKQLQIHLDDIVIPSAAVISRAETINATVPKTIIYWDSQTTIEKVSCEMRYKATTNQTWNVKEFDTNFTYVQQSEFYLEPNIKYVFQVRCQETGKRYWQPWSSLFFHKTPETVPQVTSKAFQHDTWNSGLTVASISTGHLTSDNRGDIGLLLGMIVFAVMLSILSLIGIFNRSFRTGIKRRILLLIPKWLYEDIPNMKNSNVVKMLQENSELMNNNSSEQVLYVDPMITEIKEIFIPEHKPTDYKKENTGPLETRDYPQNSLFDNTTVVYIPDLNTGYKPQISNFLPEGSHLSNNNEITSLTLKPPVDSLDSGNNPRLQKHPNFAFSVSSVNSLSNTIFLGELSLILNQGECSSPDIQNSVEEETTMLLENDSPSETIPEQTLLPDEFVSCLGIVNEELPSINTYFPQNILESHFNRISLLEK
In short: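 BRET displacement of a TAMRA-labelled reference compound from N-terminal Nanoluc-IL-23R fusion protein in membranes from stably transfected HEK293 cells. Incubation 2 h at room temperature, then Nanoluc substrate was added and the TAMRA/Nanoluc ratio read. IC50 and maximal displacement came from 4-parameter logistic fits.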

With `CC(C)C[C@]1(C)NC(=O)[C@H](Cc2ccc3ccccc3c2)NC(=O)[C@H](Cc2ccc(OCCN)cc2)NC(=O)[C@@H]2CCC(=O)N[C@H](CCCCNC(=O)CC[C@@H](C(=O)N[C@@H](CCN)C(=O)N[C@@H](Cc3cccnc3)C(N)=O)NC1=O)C(=O)N[C@@H]([C@@H](C)O)C(=O)N[C@@H](C(C)C)C(=O)N[C@@H](Cc1c[nH]c3ccccc13)C(=O)N[C@@H](CCC(N)=O)C(=O)N2` [Compound 1, [{d}K](1c)(6c)^†TVWQE(6c)[Y(2-aminoethoxy)][2-Nal][2-Me-Leu]E(1c)[Dab][3-(3-Pyridyl)-Ala]-[NH2]] the remaining at 1 h, 10 µM ([1]; pH 1.2, 10 µM, pH 1.2, 1 h, read-out: SGF (% remaining 1 h)) was 104%, the remaining at 4 h, 10 µM ([1]; pH 1.2, 10 µM, read-out: SGF (% remaining 4 h)) was 97% and the remaining at 4 h, 10 µM ([1]; pH 1.2, SAR tables, % peptide remaining, 10 µM, read-out: SGF (% after 4 h)) was 104%. The “% displacement (hIL-23R NIuc)” value (human IL-23R) was 103% and the IC50 (human IL-23R) was 0.04 nM.
